In patent US20150353626A1, “APOLIPOPROTEIN A-I DERIVED PEPTIDES FOR TREATMENT OF HYPERGLYCAEMIA” (priority 2013, published 2015):
Ends that are not written are not given here.

What was measured:
[1] = tested on: insulin resistant C57Bl/6 mice; experiment: Glucose tolerance test in high-fat diet fed (HFD) mice; assay type: in vivo, mouse; settings: glucose load 3 hours later
Description: Male C57BL/6 mice (Taconic) were used at 9-12 weeks of age. Animals were on a 12 hour light cycle with non-restricted food and water. The HFD animals were fed an HFD (D12492, 60% fat content; Research Diets) for 2 weeks. All animal procedures were approved by the Malmo/Lund Committee for Animal Experiment Ethics, Lund, Sweden. HFD mice fasted overnight (12 hours) were injected intra peritoneal (i.p.) with apoA-I peptides as listed above ([…] in PBS pH 7.4 for the 54-mer fragment and 6-7 mg/kg for other fragments in PBS, pH 7.4; control animals received NaCl) and this was followed by collection of serum samples at the indicated times. Glucose (50 mg/mouse) was injected i.p. 3 hours after treatments, followed by collection of serum samples at the indicated times. Blood glucose levels were measured (OnetouchUltra2; Lifescan), and insulin levels were assayed in serum using ELISA (Mercodia).

AMPK = experiment: Western blot for phosphorylated AMPK in L6 myotube lysates; assay type: cell-based; settings: L6 myotubes, 60 minutes; rHDL 700 μg/ml apoA-I; phenformin 0.4 mmol/l; FIG. 3a,b
Description: (§1) Prior to stimulation or treatment cultured myoblast cells were serum starved for 4 hours in serum-free α-MEM and all subsequent treatments, including insulin or phenformin as positive controls (Sigma), were performed in serum free a-MEM. After treatments, cells were washed with ice cold PBS buffer and lysed on ice using a non-denaturing lysis buffer (1% Triton X-100, 50 mmol/l Tris, 150 mmol/l NaCl, pH 8.0) containing protease and phosphatase inhibitors (Roche). Lysates were centrifuged at 16,000×g, 20 minutes at 4° C. and BCA protein assay (Pierce) was performed on supernatants. Equal protein amounts were separated by SDS-PAGE and transferred to nitrocellulose membranes. pAMPK, AMPK, pACC, pAkt, Akt and tubulin were used for immunodetection with IRDye 800CW and 680RD secondary antibodies (LI-COR). Blots were imaged using the Odyssey Fc system and quantified using Image studio v2.0 software.
To dissect the effect of discoidal rHDL on a non-insulin dependent signaling pathway, we conducted western blotting using lysates from L6 myotubes incubated with rHDL. […] Phenformin was used as a positive control, inducing a 1.98±0.33-fold (p=≦0.05) and 2.7±0.74-fold (p=≦0.05) elevation of phosphorylated AMPK and ACC, respectively, at a concentration of 0.4 mmol/l. […] Representative immunoblots of those quantified for FIGS. 3a, c and f are given in FIGS. 3b, d and e, respectively. […]

ACC = experiment: Western blot for phosphorylated ACC in L6 myotube lysates; assay type: cell-based; settings: L6 myotubes, 60 minutes; rHDL 700 μg/ml apoA-I; phenformin 0.4 mmol/l; FIG. 3c,d
Description: as §1
To dissect the effect of discoidal rHDL on a non-insulin dependent signaling pathway, we conducted western blotting using lysates from L6 myotubes incubated with rHDL. […] Phenformin was used as a positive control, inducing a 1.98±0.33-fold (p=≦0.05) and 2.7±0.74-fold (p=≦0.05) elevation of phosphorylated AMPK and ACC, respectively, at a concentration of 0.4 mmol/l. […] Representative immunoblots of those quantified for FIGS. 3a, c and f are given in FIGS. 3b, d and e, respectively.

L6 myotubes = experiment: Glucose uptake in L6 myotubes (2-[3H]-deoxy-D-glucose); assay type: cell-based; settings: 2 h serum starved, 50 μg/ml (1.6 μmol/l) apoA-I or 100 nmol/l insulin, 1 hour, FIG. 1b
Description: L6 myoblasts (ATCC #CRL-1458) were grown in α-MEM (Invitrogen) supplemented with 10% FBS (Sigma) and 1% antibiotic/antimycotic (Penicillin, streptomycin, amphotericin B; Invitrogen). Differentiation to myotubes was achieved by switching from growth media to 2% FBS a-MEM for 6-7 or 6-12 days. Cells were maintained at 37° C. and 5% CO2.
Prior to stimulation (or treatment) cells were starved for 2 hours in serum-free a-MEM and all subsequent treatments, which were performed in triplicate and included cytochalasin B (Sigma) as a measure of cell associated non-specific radioactivity, were performed in uptake buffer (140 mmol/l NaCl, 20 mmol/l HEPES, 5 mmol/l KCl, 2.5 mmol/l MgSO4, 1 mmol/l CaCl2, pH 7.4). After stimulation, treatments were replaced with 10 μmol/l 2-deoxy-D-glucose (Sigma), 10 μmol/l 2-[3H]-deoxy-D-glucose (Perkin Elmer) in uptake buffer for 15 mins at room temperature. Cells were then washed twice with ice cold PBS and lysed with 1 mol/l NaOH on ice. Lysates were collected and radioactivity quantified by scintillation counting.
In order to investigate the effect of discodial HDL (rHDL) on GLUT4 translocation and glucose uptake, we produced recombinant human apoA-I and reconstituted HDL needed for cell incubations. L6 myotubes were incubated with 50 μg/ml (1.6 μmol/l) apoA-I for 1 hour followed by a glucose uptake assay as described above. […] Next, L6 myotubes were treated by incubation with 50 μg/ml discodial rHDL (expressed as total concentration of apoA-I in rHDL, given 2 apoA-I molecules per particle) for 1 hour. […] This experiment was thereafter repeated in more controlled manner including cell number and quality (cells were similarly treated during differentiation from myoblasts to multinuclear myotubes, with respect to the time between splitting cells, cell density, passage of cells used.) (FIG. 7c).
The relative effect of specific regions of apoA-I to increase glucose uptake was investigated using truncated protein fragments corresponding to residues 1-189 (N-terminal/central domain), 44-189 (central domain), 44-243 (central/C-terminal domain) and 190-243 (C-terminal domain) of full-length apoA-I (FIG. 4a). The treatments with incubation of truncated protein fragments were performed as described above for treatment of L6 myotubes with full-length apoA-I and followed by a glucose uptake assay as described above.
To test for the contribution of the constituent phospholipid to rHDL-induced glucose uptake in L6 myotubes, rHDL made with DMPC was also produced and compared to 100 nm DMPC vesicles containing no apoA-I protein. Stable 100 nm diameter vesicles can be synthesized with DMPC in the absence of apoA-I and was therefore used as a phospholipid control. The effect on the glucose uptake was tested as described above. […] To also test for the contribution of the constituent POPC phospholipid to rHDL-induced glucose uptake, rHDL made with POPC was compared with 100 nm POPC vesicles containing no apoA-I protein.

[2] = Circular dichroism spectroscopy, alpha-helical content; assay type: physicochemical; settings: 0.2 mg/ml in PBS pH 7.4, 25° C.
Description: CD measurements were performed on a Jasco J-810 spectropolarimeter equipped with a Jasco CDF-4265 Peltier set to 25° C. ApoA-I (full-length and the 190-234 polypeptide fragment) was diluted to 0.2 mg/ml in PBS (final concentration was 25 mmol/l phosphate, 25 mmol/l NaCl, pH 7.4), placed in a 0.1 mm quartz cuvette and, after extensive purging with nitrogen, scanned in the region 200 to 260 nm (scan speed was 20 nm/min). Averages of five scans were baseline-subtracted (PBS; 25 mmol/l phosphate, 25 mmol/l NaCl) and the alpha-helical content was calculated from the molar ellipticity at 222 nm as previously described (Petrlova et al. (2012) J Lipid Res 53: 390-398).

[3] = apo-state versus discoidal HDL; Saito et al. (2004); cited from earlier work
[4] = target: the molecule itself; experiment: blue native PAGE, coomassie stained; self-association (homo-oligomer) in solution and after 1 hour with L6 myotubes
Description: It is known that the 190-234 polypeptide fragment can form discoidal particles by solubilisation of lipid in solution (Vedhachalan et al. (2010) J Biol Chem 285:31965-31973), which can be visualised as oligomers on native PAGE. […] Lipid-free apoA-I and rHDL were included on the gel as a full length protein monomer and dimer reference.

[5] = 18-mer peptides, single injection 7 mg/kg, FIG. 12
[6] = 23- or 27-mer peptides, single injection 6-7 mg/kg, FIG. 11

## SEQ ID NO: 2: fragment consisting of amino acids 190-207 of human ApoA-I (AEYHAKATEHLSTLSEKA; listed as Homo Sapiens)
[1]; [5]
  glucose tolerance capacity / capacity to clear blood glucose (in words): showed particular increased capacity to clear blood glucose

## SEQ ID NO: 518: fragment consisting of amino acids 204-226 of human ApoA-I (SEKAKPALEDLRQGLLPVLESFK; listed as Homo Sapiens)
[1]; [6]
  glucose tolerance capacity / capacity to clear blood glucose (in words): showed particular increased capacity to clear blood glucose

## [H]/N=C(/N)N/C(=N/[H])NCCc1ccccc1 [Phenformin, phenformin, reference compound]
AMPK
  levels of phosphorylated AMPK: 1.98±0.33 fold
ACC
  levels of phosphorylated ACC: 2.7±0.74 fold

## SEQ ID NO: 4: fragment consisting of amino acids 226-243 of human ApoA-I (KVSFLSALEEYTKKLNTQ; listed as Homo Sapiens)
[1]; [5]
  glucose tolerance capacity / capacity to clear blood glucose (in words): showed particular increased capacity to clear blood glucose

## apoA-I: recombinant full-length human apolipoprotein A-I, amino acids 1-243, lipid-free
L6 myotubes
  increased glucose uptake: 1.3 fold
[2]
  helical content from molar ellipticity at 222 nm: 43%
[3]
  alpha-helical secondary structure: about 44%

## SEQ ID NO: 8: fragment consisting of amino acids 217-243 of human ApoA-I (GLLPVLESFKVSFLSALEEYTKKLNTQ; listed as Homo Sapiens)
[1]; [6]
  glucose tolerance capacity / capacity to clear blood glucose (in words): showed particular increased capacity to clear blood glucose

B1: 190-243 polypeptide fragment of human apoA-I (SEQ ID NO: 1) (peptide, not shown: small tags and cut ends)
chain: AEYHAKATEHLSTLSEKAKPALEDLRQGLLPVLESFKVSFLSALEEYTKKLNTQ
modifications: also: N-terminal hexa-His tag (letters not given here)
notes: Recombinant, expressed in E. coli
[4]
  binding result: binds
